Reference: patent publication US20210023099A1, “COMBINATION THERAPY WITH A BET INHIBITOR AND A PROTEASOME INHIBITOR” (Hoffmann-La Roche Inc., priority 2018, published 2021)
Several values for one entry are separate records, joined by “and”; a condition that tells them apart may be missing. Identical values can stand only once.

Key:
OPM-2 MM xenografts = experiment: In vivo antitumor efficacy against OPM-2 MM xenografts; settings: Day 31, s.c. OPM-2 xenografts in female Scid beige mice, bortezomib 0.5 mg/kg iv 2xQ7D; for Tumor Regression % / TGI % (Tumor growth inhibition): RG6146 30 mg/kg ip QD D17-31; for TGI % (Tumor growth inhibition): vs control; for npTCR (non-parametric Treatment to Control Ratio) / Tumor free animal (complete tumor remission): RG6146 30 mg/kg ip QD; for npTCR (non-parametric Treatment to Control Ratio): CI printed in the lines below; for Tumor free animal (complete tumor remission): animals tumor free / group
Protocol: The in vivo antitumor efficacy of BET inhibitor RG6146 in combination with proteasome inhibitor bortezomib was evaluated against OPM-2 MM xenografts.
(§1) The original OPM-2 human Multiple Myeloma cell line (MM) was purchased from ATCC (Manassas, Va., USA). Expansion of tumor cells for the transplantation was done by the TAP CompacT CellBase Cell Culture Roboter according to the protocol. Tumor cell line was routinely cultured in RPMI 1640 medium, FCS 10% and L-Glutamin 2 mM at 37° C. in a water-saturated atmosphere at 5% CO2. Culture passage was performed with trypsin/EDTA 1× splitting twice/week and passage 2 used for transplantation.
(§2) Female Scid beige mice (Charles River), age 6-7 weeks at arrival, maintained under specific-pathogen-free condition with daily cycles of 12 h light/12 h darkness according to committed guidelines. Experimental study protocol was reviewed and approved by local government. After arrival animals were maintained in animal facility for one week to get accustomed to new environment and for observation. Continuous health monitoring was carried out on regular basis. Diet food and autoclaved water were provided ad libitum.
(§3) Animals were controlled daily for clinical symptoms and detection of adverse effects. For monitoring throughout the experiment body weight of animals was documented.
(§4) Animal treatment started after randomisation when median tumor size was about 115 mm^3. The vehicle was administered ip once daily (QD) on D17-31. BET inhibitor RG6146 ip treatment at 30 mg/kg was done as single agent and in combination on D17-31. Finally, proteasome inhibitor bortezomib was given i.v. at 0.5 mg/kg as single agent and in combination twice a week for two weeks.
(§5) OPM-2 human MM cells were s.c. inoculated with Matrigel onto female Scid beige mice. Tumor bearing mice were randomized 17 days later to the indicated study groups and compound treatment initiated. Tumor bearing animals were treated with vehicle control, with the BET inhibitor RG6146 at 30 mg/kg or with proteasome inhibitor bortezomib at 0.5 mg/kg as single agent and in combination thereof.

MM1S MM xenografts = experiment: In vivo antitumor efficacy against MM1S MM xenografts; settings: Day 28, s.c. MM1s xenografts in female CIEA NOG mice, bortezomib 0.5 mg/kg iv 2 x Q7D; for Tumor Regression % / TGI % (Tumor growth inhibition): RG6146 30 mg/kg ip QD D14-28; for TGI % (Tumor growth inhibition): vs control; for npTCR (non-parametric Treatment to Control Ratio): RG6146 30 mg/kg ip QD, CI printed in the line below
Protocol: The in vivo antitumor efficacy of BET inhibitor RG6146 in combination with proteasome inhibitor bortezomib was evaluated against MM1S MM xenografts.
as §1, with “MM1s” for “OPM-2”
as §2, with “CIEA NOG” for “Scid beige”, “(Taconic),” for “(Charles River),”, “5-6” for “6-7”
as §3
as §4, with “100” for “115”, “D14-28.” for “D17-31.”
as §5, with “MM1s” for “OPM-2”, “CIEA-NOG” for “Scid beige”, “14” for “17”

Structure (SMILES) | Tumor Regression % (OPM-2 MM xenografts) | TGI % (Tumor growth inhibition) (OPM-2 MM xenografts) | npTCR (non-parametric Treatment to Control Ratio) (OPM-2 MM xenografts) | Tumor free animal (complete tumor remission) (OPM-2 MM xenografts) | Tumor Regression % (MM1S MM xenografts) | TGI % (Tumor growth inhibition) (MM1S MM xenografts) | npTCR (non-parametric Treatment to Control Ratio) (MM1S MM xenografts)
Cc1sc2c(c1C)C(c1ccc(Cl)cc1)=N[C@@H](CC(=O)NCCCN1CCN(C)CC1)c1nnc(C)n1-2 [RG6146, 2-[(S)-4-(4-chloro-phenyl)-2,3,9-trimethyl-6H-1-thia-5,7,8,9a-tetraaza-cyclopenta[e]azulen-6-yl]-N-[3-(4-methyl-piperazin-1-yl)-propyl]-acetamide] | 85% | >100% | 0.008 | 5 out of 10 and 5/10 | 0% | 83% | 0.29
CC(C)C[C@H](NC(=O)[C@H](Cc1ccccc1)NC(=O)c1cnccn1)B(O)O [bortezomib, [(1R)-3-methyl-1-[[(2S)-3-phenyl-2-(pyrazine-2-carbonylamino)propanoyl]amino]butyl]boronic acid, reference compound] | 0% | 60% | 0.34 | 0/10 | 0% | 29% | 0.75
